Experimental data taken from patent publication US9650380B2, “Difluoromethylene compound” (SATO PHARMACEUTICAL CO., LTD., priority 2012, dated 2017).

These compounds were tested against T1, human URAT1 (Homo sapiens, UniProt Q96S37) (assay: Test for uric acid transport inhibition using human URAT1 expression cells). Settings: human URAT1 stable expression CHO cells; 14C-labeled uric acid 38 μM final; incorporation 5 minutes at room temperature; 100% window defined with benzbromarone 100 μM; read-out: URAT1 inhibitory activity (IC50).
T1 construct: Human URAT1 full-length cDNA was introduced to an expression vector pcDNA5/FRT/V5-His TOPO; expressed in transfected cells
T1 sequence (Q96S37 1-553): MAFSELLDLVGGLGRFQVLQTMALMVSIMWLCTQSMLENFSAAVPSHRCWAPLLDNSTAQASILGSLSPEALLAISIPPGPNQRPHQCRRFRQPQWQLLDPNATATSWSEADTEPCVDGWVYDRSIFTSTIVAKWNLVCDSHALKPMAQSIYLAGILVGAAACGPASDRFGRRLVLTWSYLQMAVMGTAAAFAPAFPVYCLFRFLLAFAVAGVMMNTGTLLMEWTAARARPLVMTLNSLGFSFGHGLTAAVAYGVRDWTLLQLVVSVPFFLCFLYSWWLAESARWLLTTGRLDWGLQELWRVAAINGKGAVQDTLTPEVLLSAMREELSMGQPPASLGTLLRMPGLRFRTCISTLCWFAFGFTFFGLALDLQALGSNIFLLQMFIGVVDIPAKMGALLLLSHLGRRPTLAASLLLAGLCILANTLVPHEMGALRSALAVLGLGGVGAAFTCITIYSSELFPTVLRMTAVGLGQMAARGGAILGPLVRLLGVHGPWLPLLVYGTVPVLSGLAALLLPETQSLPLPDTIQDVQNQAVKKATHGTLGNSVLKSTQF
Format: cell-based
Protocol: In this Example, it was evaluated whether the Example compound and the Reference example compound mentioned below has the URAT1 inhibitory activity.
Human URAT1 full-length cDNA was introduced to an expression vector pcDNA5/FRT/V5-His TOPO (registered trademark) (Invitrogen Corporation). The obtained expression plasmid was introduced to Chinese hamster ovary cell (hereinafter referred to as the CHO cell) by the liposome method using Lipofectamine LTX (Invitrogen) and cultured in a selection medium including hygromycin, whereby to prepare human URAT1 stable expression cell.
The human URAT1 expression CHO cell were cultured using D-MEM/F-12 (1:1) mixed medium including 10% bovine fatal serum and hygromycin at 37° C. in the presence of 5% CO2. The cells were seeded onto a 96-well plate (Corning Incorporated) at 0.8×10^5 cells/well, and after 24 hours, the test for uric acid transport inhibition below was performed.
The medium was removed by aspiration, and then the cells were washed once with an assay buffer including 125 mM of sodium gluconate, 4.8 mM of potassium gluconate, 1.2 mM of potassium dihydrogen phosphate, 1.2 mM of magnesium sulfate, 1.3 mM of calcium gluconate and 5.6 mM of glucose, 50 μL assay buffer including the test compound in various concentrations was added, and further 50 μL assay buffer including a radioactive ligand (uric acid labeled with ^14C; 38 μM final concentration) was added, and incorporation reaction was performed at room temperature for 5 minutes. Immediately after the completion of the reaction, the reaction mixture was washed twice with 100 μL ice-cold assay buffer, and 100 μL of 0.1N sodium hydroxide was added. The reaction mixture was stirred to lyse the cells, and 4 mL of Hionic-Fluor (Packard BioScience CO.) was added, and then the radioactivity was measured with a liquid scintillation counter (Beckman Coulter, Inc. and Packard BioScience CO).
The radioactivitiy when each concentration of the test compound was added (uric acid incorporation activity, %) was calculated in which the difference of the radioactivity when the test compound was not added (DMSO added) and the radioactivity when a positive control compound, benzbromarone (a known URAT1 inhibitor) was added in 100 μM, was taken as 100%, and the concentration of the test compound when the uric acid incorporation activity was inhibited to 50% (IC50) was obtained.
Compound `Cc1nn(Cc2c(Cl)cccc2C2CC2)c2cc(C(F)(F)C(=O)O)ccc12` [Example 12, [1-(2-chloro-6-cyclopropylbenzyl)-3-methyl-1H-indazol-6-yl]difluoroacetic acid] has an IC50 of 17 nM. `Cc1nn(S(=O)(=O)c2c(Cl)cccc2Cl)c2cc(C(F)(F)c3nnn[nH]3)ccc12` [Example 102, 1-(2,6-dichlorobenzenesulfonyl)-6-[difluoro(1H-tetrazol-5-yl)methyl]-3-methyl-1H-indazole] showed an IC50 of 142 nM. `Cc1nn(Cc2c(Cl)cccc2C2CC2)c2cc(C(F)(F)C(=O)O)cnc12` [Example 38, [1-(2-chloro-6-cyclopropylbenzyl)-3-methyl-1H-pyrazolo[4,3-b]pyridin-6-yl]difluoroacetic acid] was tested, and the IC50 was 34 nM.
